Results from ChEMBL document CHEMBL1201862, “PubChem BioAssay data set” (2004).
Activity calls are given as the source filed them.

Columns and labels:
Cytochrome P450 3A4 = Cytochrome P450 3A4 (Homo sapiens, UniProt P08684); details: Potency;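 note: confirmatory qHTS run detecting inhibitors and substrates of CYP3A4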
[1] = A cytotoxicity screen of small molecule inhibitors of the PhoP region in Salmonella typhi identified in the primary screen. [Related pubchem assays: 1850, 1864, 1985 ]; type: functional
[2] = biological target: Disintegrin and metalloproteinase domain-containing protein 17 (Homo sapiens, UniProt P78536); assay: exosite inhibitors of ADAM17, dose response, biochemical (AID 743260)
[3] = P. falciparum Dd2 growth inhibitors, dose response, SYBR Green, cherry-picked samples (AID 1159567); type: functional, cell-based
[4] = Dd2 malaria parasite growth inhibition potency – SYBR Green, dry powder samples, dose response (AID 1159566); type: functional, cell-based;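 note: potency for growth inhibition with lower SYBR green DNA signal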
[5] = growth inhibition of PfATP4-mutant resistant parasites – NITD609-resistant line, SYBR Green, dry powder, dose response (AID 1159571); type: functional, cell-based;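 note: parasites synchronized at ring stage by sorbitol before testing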
[6] = growth inhibition of yeast DHODH-expressing 3D7 parasites – SYBR Green, dry powder samples, dose response (AID 1159570); type: functional, cell-based;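 note: parasite growth measured after 72 hours of compound exposure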
Coagulation factor XII = biological target: T1, Coagulation factor XII (Homo sapiens, UniProt P00748); type: functional;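 note: activated factor XIIa alpha cleaving a fluorogenic AMC peptide substrate; inhibitor potency from loss of enzyme activity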
T1 sequence (P00748 whole entry): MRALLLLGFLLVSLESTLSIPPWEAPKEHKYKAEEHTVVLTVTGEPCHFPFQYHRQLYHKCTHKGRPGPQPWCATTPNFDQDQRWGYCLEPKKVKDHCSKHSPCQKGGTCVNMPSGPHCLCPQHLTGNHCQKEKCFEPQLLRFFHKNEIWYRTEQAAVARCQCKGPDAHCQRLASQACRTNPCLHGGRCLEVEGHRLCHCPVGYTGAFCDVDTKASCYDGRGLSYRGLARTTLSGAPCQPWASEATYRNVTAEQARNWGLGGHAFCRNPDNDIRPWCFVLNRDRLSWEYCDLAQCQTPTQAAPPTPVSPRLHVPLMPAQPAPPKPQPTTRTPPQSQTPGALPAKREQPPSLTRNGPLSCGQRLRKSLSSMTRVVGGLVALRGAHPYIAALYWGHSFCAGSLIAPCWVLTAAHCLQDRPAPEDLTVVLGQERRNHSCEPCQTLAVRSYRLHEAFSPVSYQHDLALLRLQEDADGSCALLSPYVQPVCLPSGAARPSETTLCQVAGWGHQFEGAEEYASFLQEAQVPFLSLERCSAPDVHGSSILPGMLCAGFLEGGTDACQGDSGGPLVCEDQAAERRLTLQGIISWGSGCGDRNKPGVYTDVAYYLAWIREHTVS

Prothrombin = Prothrombin (Homo sapiens, UniProt P00734); assay: Thrombin 1536 HTS Dose Response Confirmation. [Related pubchem assays: 1046 (Thrombin 1536 HTS; hits were confirmed in this assay)]; type: functional
[7] = Trypanosoma cruzi growth suppression in host cells – NIH3T3 host cells, beta-gal luminescence, confirmation (AID 2044); type: functional, cell-based;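 note: intracellular parasites grown in NIH/3T3 mouse fibroblasts as host cells; luminescent beta-galactosidase reporter signal from transgenic T. cruzi replicating inside host cells; inhibitors lower the luminescence signal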
[8] = NIH3T3 cell viability loss – ATP luminescence, mouse fibroblasts, counter-screen, dose response (AID 2010); type: functional, cell-based;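 note: cells exposed to compound for about 90 hours before reading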
[9] = inhibition of ADAM10 peptide cleavage – biochemical, FRET peptide substrate, recombinant human ADAM10, selectivity assay for ADAM17 exosite inhibitor project, dose response (AID 743259);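 note: ADAM10 enzyme cleaving a FRET peptide substrate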
[10] = M. tuberculosis H37Rv growth inhibitors, H37Rv strain (AID 1626); type: functional
Protein skinhead-1 = biological target: T2, Protein skinhead-1 (Caenorhabditis elegans, UniProt P34707); type: functional
T2 sequence (P34707 whole entry): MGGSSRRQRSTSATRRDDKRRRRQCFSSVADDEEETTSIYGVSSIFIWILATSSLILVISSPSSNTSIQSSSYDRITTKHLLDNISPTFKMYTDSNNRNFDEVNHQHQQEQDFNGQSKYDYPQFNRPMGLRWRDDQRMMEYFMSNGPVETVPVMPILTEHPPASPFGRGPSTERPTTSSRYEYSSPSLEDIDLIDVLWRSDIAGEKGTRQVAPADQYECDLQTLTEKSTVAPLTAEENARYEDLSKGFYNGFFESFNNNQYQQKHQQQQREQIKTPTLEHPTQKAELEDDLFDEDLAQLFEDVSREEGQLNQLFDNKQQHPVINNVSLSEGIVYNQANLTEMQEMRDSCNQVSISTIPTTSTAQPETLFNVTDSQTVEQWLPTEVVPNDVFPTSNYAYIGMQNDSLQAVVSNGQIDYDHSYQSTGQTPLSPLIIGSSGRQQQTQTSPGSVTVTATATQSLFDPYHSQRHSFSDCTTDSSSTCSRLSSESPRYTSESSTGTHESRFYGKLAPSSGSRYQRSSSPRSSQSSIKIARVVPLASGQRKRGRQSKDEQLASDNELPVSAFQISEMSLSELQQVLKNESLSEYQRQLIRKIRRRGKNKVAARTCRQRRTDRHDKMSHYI

[11] = biological target: T3, Heat shock factor protein 1 (Mus musculus, UniProt P38532); assay: decrease of HSF1-responsive luciferase luminescence – cell-based, NIH3T3, dose retest, confirmation (AID 2382); type: functional;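 note: NIH3T3 fibroblasts with HSF1-driven luciferase reporter stressed by proteasome inhibitor MG132; luminescence from HSF1-driven luciferase expression after 8 hours of MG132 stress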
T3 sequence (P38532 whole entry): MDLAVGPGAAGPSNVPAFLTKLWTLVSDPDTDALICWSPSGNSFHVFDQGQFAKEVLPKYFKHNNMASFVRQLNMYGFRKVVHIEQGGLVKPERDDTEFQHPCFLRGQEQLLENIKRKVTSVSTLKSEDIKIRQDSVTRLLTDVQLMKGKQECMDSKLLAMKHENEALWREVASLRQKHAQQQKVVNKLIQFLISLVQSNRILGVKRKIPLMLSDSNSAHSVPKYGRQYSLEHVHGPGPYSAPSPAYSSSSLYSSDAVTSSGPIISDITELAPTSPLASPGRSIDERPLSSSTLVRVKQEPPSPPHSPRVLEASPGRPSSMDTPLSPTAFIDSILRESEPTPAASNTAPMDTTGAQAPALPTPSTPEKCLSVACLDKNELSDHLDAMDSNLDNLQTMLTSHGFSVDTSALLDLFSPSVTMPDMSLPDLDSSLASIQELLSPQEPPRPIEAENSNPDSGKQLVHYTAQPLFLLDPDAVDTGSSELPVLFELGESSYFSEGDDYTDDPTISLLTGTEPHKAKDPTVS

[12] = tested on: Streptococcus sp. 'group A'; assay: Streptococcus pyogenes SK(-)GAS viability under kanamycin – luminescence, BacTiterGlo, confirmation, counter-screen for streptokinase expression inhibitor project, dose response (AID 1900); type: functional, organism-based
Streptococcus = assay: GAS UMAA2166 growth inhibition – luminescence, BacTiterGlo, counter-screen for streptokinase expression inhibitor project, dose response (AID 1915); type: functional, organism-based;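 note: potency for reduction of bacterial viability or growth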
Streptokinase A = biological target: T4, Streptokinase A (Streptococcus pyogenes serotype M1, UniProt P10520); assay: viability-normalized secreted streptokinase activity reduction – plasminogen activation absorbance, OD405, dose response (AID 1914); type: functional, Streptococcus pyogenes M1 GAS;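 note: secreted streptokinase activity via plasminogen activation per viability signal from cell pellet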
T4 sequence (P10520 whole entry): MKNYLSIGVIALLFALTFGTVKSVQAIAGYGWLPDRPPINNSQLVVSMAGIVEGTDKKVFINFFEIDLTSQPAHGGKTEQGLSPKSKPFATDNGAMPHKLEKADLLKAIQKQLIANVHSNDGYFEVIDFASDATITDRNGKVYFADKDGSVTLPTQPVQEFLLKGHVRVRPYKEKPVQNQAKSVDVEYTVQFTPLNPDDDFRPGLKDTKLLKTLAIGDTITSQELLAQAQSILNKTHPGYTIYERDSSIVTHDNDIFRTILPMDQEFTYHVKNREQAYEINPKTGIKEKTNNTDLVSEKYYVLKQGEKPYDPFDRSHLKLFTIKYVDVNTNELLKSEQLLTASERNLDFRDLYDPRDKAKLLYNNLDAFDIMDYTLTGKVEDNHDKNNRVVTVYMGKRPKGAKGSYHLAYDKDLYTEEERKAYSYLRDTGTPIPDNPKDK

[13] = biological target: T5, DNA repair protein RAD52 homolog (Homo sapiens, UniProt P43351); type: functional, biochemical
T5 sequence (P43351 whole entry): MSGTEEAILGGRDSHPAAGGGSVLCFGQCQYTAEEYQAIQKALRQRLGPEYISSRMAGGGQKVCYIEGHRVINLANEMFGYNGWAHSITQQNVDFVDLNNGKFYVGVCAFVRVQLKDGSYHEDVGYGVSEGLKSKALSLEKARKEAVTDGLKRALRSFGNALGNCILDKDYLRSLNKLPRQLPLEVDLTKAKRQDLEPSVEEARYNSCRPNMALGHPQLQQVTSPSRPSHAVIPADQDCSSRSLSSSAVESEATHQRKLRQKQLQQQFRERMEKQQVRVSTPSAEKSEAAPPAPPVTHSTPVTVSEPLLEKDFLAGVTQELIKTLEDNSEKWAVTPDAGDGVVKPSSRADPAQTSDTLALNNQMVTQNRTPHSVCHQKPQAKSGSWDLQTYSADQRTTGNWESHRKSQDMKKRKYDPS

Sequence of Disintegrin and metalloproteinase domain-containing protein 17 (P78536 whole entry, the tested form may be a part): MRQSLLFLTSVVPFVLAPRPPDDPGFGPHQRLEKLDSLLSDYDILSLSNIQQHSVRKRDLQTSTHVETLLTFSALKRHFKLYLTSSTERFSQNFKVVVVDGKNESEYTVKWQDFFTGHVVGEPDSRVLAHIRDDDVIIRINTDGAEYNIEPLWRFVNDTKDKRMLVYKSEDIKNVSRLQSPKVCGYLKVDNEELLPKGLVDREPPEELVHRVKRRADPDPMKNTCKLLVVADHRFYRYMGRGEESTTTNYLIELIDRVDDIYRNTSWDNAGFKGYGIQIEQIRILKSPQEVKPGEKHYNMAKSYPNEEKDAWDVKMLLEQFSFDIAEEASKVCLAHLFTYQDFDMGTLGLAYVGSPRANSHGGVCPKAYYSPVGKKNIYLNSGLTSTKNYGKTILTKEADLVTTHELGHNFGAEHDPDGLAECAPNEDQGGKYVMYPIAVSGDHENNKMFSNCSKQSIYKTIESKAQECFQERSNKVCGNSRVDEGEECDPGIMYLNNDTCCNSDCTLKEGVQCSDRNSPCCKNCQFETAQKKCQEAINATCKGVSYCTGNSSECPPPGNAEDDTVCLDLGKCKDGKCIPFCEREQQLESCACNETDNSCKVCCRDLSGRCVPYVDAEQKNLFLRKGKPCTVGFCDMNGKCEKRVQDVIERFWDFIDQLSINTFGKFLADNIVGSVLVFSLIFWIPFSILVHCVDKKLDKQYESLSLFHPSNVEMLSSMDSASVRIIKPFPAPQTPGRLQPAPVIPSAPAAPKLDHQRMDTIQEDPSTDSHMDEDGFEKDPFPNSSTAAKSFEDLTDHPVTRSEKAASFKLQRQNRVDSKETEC
Sequence of Cytochrome P450 3A4 (P08684 whole entry): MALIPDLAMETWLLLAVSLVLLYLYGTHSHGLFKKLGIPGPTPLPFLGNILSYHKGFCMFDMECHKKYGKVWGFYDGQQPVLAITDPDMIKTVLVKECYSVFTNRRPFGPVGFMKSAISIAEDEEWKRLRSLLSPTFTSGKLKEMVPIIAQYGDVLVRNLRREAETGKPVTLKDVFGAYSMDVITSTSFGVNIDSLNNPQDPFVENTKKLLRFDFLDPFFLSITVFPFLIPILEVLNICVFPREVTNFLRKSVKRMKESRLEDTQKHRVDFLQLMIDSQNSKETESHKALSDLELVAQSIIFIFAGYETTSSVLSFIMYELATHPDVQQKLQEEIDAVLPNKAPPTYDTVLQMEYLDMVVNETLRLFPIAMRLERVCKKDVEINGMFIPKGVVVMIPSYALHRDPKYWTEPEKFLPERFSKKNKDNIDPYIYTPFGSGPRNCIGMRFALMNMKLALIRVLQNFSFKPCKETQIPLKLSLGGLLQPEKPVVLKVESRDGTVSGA

SMILES: COC(=O)[C@@H]1C[C@@H]2CC[C@@H](O)C[C@@H]2N1Cc1ccc(C(F)(F)F)cc1
- AC50 (Cytochrome P450 3A4): 10 µM (inconclusive)

SMILES: Cc1cc(=O)oc2c(CN(C)Cc3ccccc3)c(O)ccc12
- EC50 [1]: > 50 µM (active)

SMILES: COc1cc(OC)cc(-c2cn[nH]c2N)c1
- IC50 [2]: > 69.5 µM (inactive)

SMILES: Cc1cccc(N(C(=O)CCC(=O)Nc2ccccn2)C(C(=O)NC(C)C)c2ccc(O)cc2)c1 (configuration not stated)
- EC50 [1]: > 50 µM (active)

SMILES: O=C(c1ccc(F)cc1)N1CC(=O)N2[C@H](C1)[C@@H](c1ccc(-c3cccnc3)cc1)[C@@H]2CO
- AC50 [3]: 439 nM (active)
- AC50 [4]: 420 nM (active)
- AC50 [5]: 542 nM (active)
- AC50 [6]: 786 nM (active)

SMILES: CN1C(=O)/C(=N/OC(=O)c2ccccc2)c2ccccc21
- IC50 (Coagulation factor XII): 4.93 µM (active)
- IC50 (Prothrombin): 5.05 µM (active)

SMILES: Cc1cccc(C(=N)NOC(=O)N2CCOCC2)c1
- IC50 [2]: > 69.5 µM (inactive)
- EC50 [7]: 2.63 µM (active)
- EC50 [8]: > 60 µM (not active)
- IC50 [9]: > 69.5 µM (inactive)

SMILES: COc1cc(OC)cc(-c2c[nH]nc2N)c1
- IC50 [9]: > 69.5 µM (inactive)

SMILES: COc1ccc(/N=C2\C(=O)Nc3ccccc32)cc1
- IC50 [10]: > 100 µM (active)

SMILES: CC(/C=C(\O)c1ccc(C)o1)=N\c1ccc2c(c1)OCO2
- IC50 [10]: > 100 µM (active)

SMILES: COc1ccccc1C1CN(c2ccc(F)cc2F)N=C1c1cccs1 (configuration not stated)
- IC50 (Protein skinhead-1): > 100 µM (inactive)
- EC50 [1]: > 50 µM (active)

SMILES: Cc1ccc2nc(N(CCCN(C)C)C(=O)c3ccc(S(=O)(=O)N4CCCCCC4)cc3)sc2c1
- EC50 [11]: 109 µM (active)
- EC50 [12]: > 150 µM (not active)
- EC50 [7]: 0.125 µM (active)
- EC50 (Streptococcus): > 150 µM (not active)
- EC50 [8]: > 60 µM (not active)
- EC50 (Streptokinase A): > 150 µM (not active)
- AC50 [13]: 30.7 µM (active)

SMILES: CCOC(=O)c1cn[nH]c1N
- IC50 [10]: > 100 µM (active)
